Test results: patent publication US12178907B2, “Binary lipid bilayer-containing vesicles comprising embedded cytotoxic agents and methods of making and using the same” (The USA, as represented by the Secretary, Department of …, priority 2018, dated 2024)

Legend:
[1] = Low-speed centrifugation to sediment unincorporated HPPH; assay type: physicochemical; details: 6,000 rpm, 20-30 minutes, HBS
Protocol: HPPH-loaded vesicles were placed in microcentrifuge tubes and centrifugations were carried out at 6,000 rpm (˜3000 RCF) for 30 minutes at 20-25° C. using a fixed-angle rotor centrifuge. Supernatants containing the vesicle-incorporated HPPH were collected, and any unincorporated HPPH, which aggregates in aqueous environment, was sedimented in the pellet fraction. A sample of an equivalent amount of free HPPH was suspended in HBS (without the lipids), and mixed by vortexing. The free HPPH aggregated in the buffer, which could be sedimented in the pelleted fraction upon centrifugation at low-speed as described above. This protocol presented a simple procedure to remove unincorporated HPPH from the vesicle-associated HPPH.
Free, unincorporated HPPH aggregates in aqueous buffer due to its insolubility, and can be pelleted upon sedimentation by low-speed centrifugation. Size exclusion chromatography (PD10 columns, GE Scientific) was used to separate unincorporated HPPH from the vesicles; however, in these embodiments, it was observed that sonication of HPPH dispersion in the HBS (in the absence of lipids) generated smaller HPPH aggregates that coeluted (in part) with vesicle-associated HPPH on the PD10 column. […] The HPPH suspended in HBS (in the absence of lipids) remained in suspension prior to centrifugation as determined by absorbance measurements. […]

[2] = 661 nm laser treatment (HPPH photodamage); assay type: physicochemical; details: five minutes
Protocol: 661 nm Laser Treatment of Vesicle20-HPPH: Vesicle20-HPPH (containing 50-100 μg lipid & 2.5-5 μg HPPH) were placed in a microcentrifuge tube and irradiated horizontally in a box fitted with a diode laser cube at room temperature. Irradiation was done for five minutes using the 661 nm laser (Coherent Cube Part Number 1130061) at a power output of 90 mW (125 mW/cm^2, as measured by the Thorlabs PM200 Energy Meter with the S121C Photodiode Power Sensor). Free HPPH dispersed in Tween 80 (Tween 80-HPPH) (4) and DPPC:DC8,9PC:DSPEG2000 vesicles (Table 1B) were used as controls to compare the extents of photodamage.
The efficiency of photoactivation by HPPH upon laser exposure depends on its environment and aggregation state. Laser treatment of HPPH results in photodamage and serves as an indication of its activity. Therefore, the photodamage of vesicle-formulated HPPH was compared with Tween 80-HPPH and a formulation comprising DPPC and a lower concentration of DSPE-PEG2000 (see Table 2). The extent of photodamage was tested using Vesicle10-HPPH containing 1:0.05 Lipid:HPPH ratios (Table 2) upon treatment with 661 nm laser for five minutes.

[3] = cited from earlier work

HPPH sedimented into the pelleted fraction [1]: nearly complete sedimentation
SMILES: CCCCCCOC(C)c1c(C)c2cc3nc(c4c5[nH]c(cc6nc(cc1[nH]2)C(C)=C6CC)c(C)c5C(=O)C4)[C@@H](CCC(=O)O)[C@@H]3C (stereo partly shown) [HPPH, 2-[1-hexyloxyethyl]-2-devinyl pyropheophorbide-a]
extent of photodamage (HPPH fluorescence remaining after laser) [2]: did not result in a decrease in fluorescence
molar extinction ε ([3]; at 665 nm): 47,500 M^−1 cm^−1
log P ([3]; physiological pH): 5.6
